Measured values published in patent US4704407A, “Soluble dobutamine salts” (Eli Lilly and Company, priority 1986, dated 1987).
Counter-ions that a name gives are not always drawn. Blank lines part the entries; values can stand above or below the compound they belong to.

Legend:
[1] = Solubility of dobutamine salts (as dobutamine base, in water); format: physicochemical
Protocol: 8.3 Millimoles of dobutamine free base and 8.7 millimoles of one of each of the following acids: glycolic, (+)-tartaric, gluconic, lactobionic and glucoheptonic, were mixed under an N2 atmosphere were an amount of 0.035 g aqueous sodium bisulfite dissolved in water for injection such that the final volume was […]; i.e., 100 mg/ml of dobutamine base. If required, the salt-forming mixture was warmed to expedite solution of dobutamine base. The solid salt can be obtained from the solution, if desired, by evaporation of the solvent.
The solubilities of each of the dobutamine salts thus prepared was in excess of 100 mg/ml. By contrast, a saturated solution of dobutamine hydrochloride provides about 25 mg/ml of dobutamine.
Furthermore, with any of the acids named, stereoisomers thereof can also be used rather than a racemate. Dobutamine content of all solutions is monitored with UV.

[2] = cited from earlier work
[3] = Storage stability of concentrate solutions; format: physicochemical; settings: at 5° C., N2 atmosphere, with sodium bisulfite, pH=3.65
Description: In a repeat with (-) tartaric acid, 58.6 g of dobutamine hydrochloride in deaerated water were neutralized with dilute aqueous sodium hydroxide in the presence of a peroxide scavenger under N2; pH=11.09. The precipitate of dobutamine base was washed with the […] and dried. The filter cake was dissolvd in 2 l of deaerated water followed by 26.1 g of (-)-tartaric acid and 0.8 g of sodium bisulfite; pH=3.65. The solution was filtered and then stored at […], always under an N2 atmosphere. Such stored concentrate solutions are stable for 12 months or more at 5° C.

[4] = ascribed to dobutamine, U.S. Pat. No. 3,932,461
[5] = U.S. Pat. No. 3,932,461 (Suh I)

SMILES: CC(CCc1ccc2c(c1)OCO2)NCCc1ccc(O)c(O)c1 (centres unmarked) [N-[3-(3,4-methylenedioxyphenyl)-1-methylpropyl 2-(3,4-dihydroxyphenyl)ethylamine]
- cardiotonic properties [2, 5]: cardiotonic properties similar to those ascribed to dobutamine
- depressant or analgesic activity [2, 5]: depressants or analgesics

SMILES: CC(CCc1ccc(O)cc1)NCCc1ccc(O)c(O)c1 (centres unmarked) [dobutamine hydrochloride]
- solubility ([1]; water, saturated solution, mg/ml of dobutamine, read-out: dobutamine provided by a saturated solution): ~25 mg/mL

More lines, main results first:

- solubility of the dobutamine salt (in words) ([1]; salts with further tartaric acid isomers): high solubility
SMILES: CC(CCc1ccc(O)cc1)NCCc1ccc(O)c(O)c1 (racemic) [dobutamine salt of (±)-tartaric acid]

- solubility in water (in words) ([1]; dobutamine base separates from the alkaline medium): water-insoluble
SMILES: CC(CCc1ccc(O)cc1)NCCc1ccc(O)c(O)c1 (racemic) [dobutamine, (±)-N-[3-(4-hydroxyphenyl)-1-methylpropyl]2-(3,4-dihydroxyphenyl) ethylamine]
- contractile force [2, 4]: increased contractile force
- effect on blood pressure or heart rate [2, 4]: without significant effect on blood pressure or heart rate

- stability of stored concentrate solutions [3]: ≥ 12 months
SMILES: CC(CCc1ccc(O)cc1)NCCc1ccc(O)c(O)c1 (stereo not drawn) [dobutamine salt of (-)-tartaric acid]
